Data taken from PubChem BioAssay AID1963960 (Molecular Pharmacology Branch, DTP, NCI, 2024).

Tested on: MDA-MB-468 spheroids with HUVEC/MSC, viability
Assay: Anticancer human tumor MDA-MB-468 cell line growth inhibition [PI3K];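 further: spheroids exposed to agents for seven days before readout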;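 on viability, T/C: 100% = DMSO vehicle control viability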
Conditions: for IC50: curve of first compound; for viability, T/C: stronger effect = lower value
How it was run: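 Stroma-containing spheroids: tumor line, pooled-donor HUVEC, hMSC. Treatments: targeted agents with PI3K inhibitors. Dosing: clinically relevant, half-log spacing, 10 microM ceiling without known Cmax. Read-out: cell viability.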

[1] = second compound 0.00316 µM, first compound 0.0316 µM
[2] = second compound 0.00316 µM, first compound 0.1 µM
[3] = second compound 0.00316 µM, first compound 0.316 µM
[4] = second compound 0.00316 µM, first compound 1 µM
[5] = second compound 0.00316 µM, first compound 3.16 µM
[6] = second compound 0.00316 µM, first compound 10 µM
[7] = second compound 0.01 µM, first compound 0.0316 µM
[8] = second compound 0.01 µM, first compound 0.1 µM
[9] = second compound 0.01 µM, first compound 0.316 µM
[10] = second compound 0.01 µM, first compound 1 µM
[11] = second compound 0.01 µM, first compound 3.16 µM
[12] = second compound 0.01 µM, first compound 10 µM
[13] = second compound 0.0316 µM, first compound 0.0316 µM
[14] = second compound 0.0316 µM, first compound 0.1 µM
[15] = second compound 0.0316 µM, first compound 0.316 µM
[16] = second compound 0.0316 µM, first compound 1 µM
[17] = second compound 0.0316 µM, first compound 3.16 µM
[18] = second compound 0.0316 µM, first compound 10 µM
[19] = second compound 0.1 µM, first compound 0.0316 µM
[20] = second compound 0.1 µM, first compound 0.1 µM
[21] = second compound 0.1 µM, first compound 0.316 µM
[22] = second compound 0.1 µM, first compound 1 µM
[23] = second compound 0.1 µM, first compound 3.16 µM
[24] = second compound 0.1 µM, first compound 10 µM
[25] = second compound 0.316 µM, first compound 0.0316 µM
[26] = second compound 0.316 µM, first compound 0.1 µM
[27] = second compound 0.316 µM, first compound 0.316 µM
[28] = second compound 0.316 µM, first compound 1 µM
[29] = second compound 0.316 µM, first compound 3.16 µM
[30] = second compound 0.316 µM, first compound 10 µM
[31] = second compound 1 µM, first compound 0.0316 µM
[32] = second compound 1 µM, first compound 0.1 µM
[33] = second compound 1 µM, first compound 0.316 µM
[34] = second compound 1 µM, first compound 1 µM
[35] = second compound 1 µM, first compound 3.16 µM
[36] = second compound 1 µM, first compound 10 µM

Compound: CC(Cn1ccc(-c2ccc(C#N)c(Cl)c2)n1)NC(=O)c1cc(C(C)O)[nH]n1 (centres undefined) + COc1c(OCCCN2CCOCC2)ccc2c3n(c(=NC(=O)c4cnc(N)nc4)nc12)CCN3
- IC50 (second compound 0.00316 µM): > 10 µM
- IC50 (second compound 0.01 µM): > 10 µM
- IC50 (second compound 0.0316 µM): > 10 µM
- IC50 (second compound 0.1 µM): > 10 µM
- IC50 (second compound 0.316 µM): < 0.0316 µM
- IC50 (second compound 1 µM): < 0.0316 µM
- viability, T/C [1]: 88.8%
- viability, T/C [2]: 90.3%
- viability, T/C [3]: 94.3%
- viability, T/C [4]: 92.3%
- viability, T/C [5]: 90.5%
- viability, T/C [6]: 75.3%
- viability, T/C [7]: 92.2%
- viability, T/C [8]: 91.3%
- viability, T/C [9]: 83.4%
- viability, T/C [10]: 95.3%
- viability, T/C [11]: 85.3%
- viability, T/C [12]: 63.7%
- viability, T/C [13]: 83.6%
- viability, T/C [14]: 75.7%
- viability, T/C [15]: 87.1%
- viability, T/C [16]: 80.5%
- viability, T/C [17]: 80.9%
- viability, T/C [18]: 62.8%
- viability, T/C [19]: 55.8%
- viability, T/C [20]: 57%
- viability, T/C [21]: 60.9%
- viability, T/C [22]: 59.3%
- viability, T/C [23]: 56%
- viability, T/C [24]: 62.3%
- viability, T/C [25]: 26.9%
- viability, T/C [26]: 24.4%
- viability, T/C [27]: 27.3%
- viability, T/C [28]: 26.1%
- viability, T/C [29]: 26.7%
- viability, T/C [30]: 27.2%
- viability, T/C [31]: 2.86%
- viability, T/C [32]: 2.48%
- viability, T/C [33]: 2.64%
- viability, T/C [34]: 3.21%
- viability, T/C [35]: 3.72%
- viability, T/C [36]: 2.3%

Compound: Cn1nccc1Nc1nccc(-c2ccn(C(CO)c3ccc(Cl)c(F)c3)c(=O)c2)n1 (centres undefined) + COc1c(OCCCN2CCOCC2)ccc2c3n(c(=NC(=O)c4cnc(N)nc4)nc12)CCN3
- IC50 (second compound 0.00316 µM): > 10 µM
- IC50 (second compound 0.01 µM): > 10 µM
- IC50 (second compound 0.0316 µM): 7.63 µM
- IC50 (second compound 0.1 µM): 4.4 µM
- IC50 (second compound 0.316 µM): < 0.0316 µM
- IC50 (second compound 1 µM): < 0.0316 µM
- viability, T/C [1]: 90.7%
- viability, T/C [2]: 83%
- viability, T/C [3]: 79.1%
- viability, T/C [4]: 85.3%
- viability, T/C [5]: 81.3%
- viability, T/C [6]: 73.6%
- viability, T/C [7]: 71.1%
- viability, T/C [8]: 86.5%
- viability, T/C [9]: 78.7%
- viability, T/C [10]: 71.8%
- viability, T/C [11]: 77.9%
- viability, T/C [12]: 76.9%
- viability, T/C [13]: 71.3%
- viability, T/C [14]: 68.7%
- viability, T/C [15]: 71.7%
- viability, T/C [16]: 73.9%
- viability, T/C [17]: 61.9%
- viability, T/C [18]: 46%
- viability, T/C [19]: 56.3%
- viability, T/C [20]: 54.9%
- viability, T/C [21]: 52.5%
- viability, T/C [22]: 52.4%
- viability, T/C [23]: 50.9%
- viability, T/C [24]: 48.6%
- viability, T/C [25]: 24.6%
- viability, T/C [26]: 23.3%
- viability, T/C [27]: 23.3%
- viability, T/C [28]: 24.9%
- viability, T/C [29]: 26%
- viability, T/C [30]: 19.9%
- viability, T/C [31]: 3.06%
- viability, T/C [32]: 2.27%
- viability, T/C [33]: 2.37%
- viability, T/C [34]: 2.51%
- viability, T/C [35]: 1.79%
- viability, T/C [36]: 0.85%
